These results are taken from patent publication US11161837B2, “Benzofuran derivatives for the treatment of hepatitis C” (BRISTOL-MYERS SQUIBB COMPANY, priority 2016, dated 2021).

For test [1], the target named is T1, NS5B proteins of HCV genotype 1b (Con1) (Hepatitis C virus genotype 1b, UniProt Q9WMX2).
T1 construct: Each untagged protein was expressed with an 18 amino acid C-terminal truncation to enhance the solubility; made in house; host or cells: E. coli BL21(DE3), pET21a
Kind of test: HCV NS5B RdRp enzyme assay. In kind it is biochemical. The settings on record: 1b enzyme. As for the experimental part:
HCVNS5B RdRp Cloning, Expression, and Purification.
The cDNA encoding NS5B proteins of HCV genotype 1b (Con1), a genotype 1b variant with amino acid 316 mutated from cysteine to asparagine, and genotype 2a (JFH-1), were cloned into the pET21a expression vector. Each untagged protein was expressed with an 18 amino acid C-terminal truncation to enhance the solubility. The E. coli competent cell line BL21(DE3) was used for expression of the protein. Cultures were grown at 37° C. for ˜4 hours until the cultures reached an optical density of 2.0 at 600 nm. The cultures were cooled to 20° C. and induced with 1 mM IPTG. Fresh ampicillin was added to a final concentration of 50 μg/mL and the cells were grown overnight at 20° C.
Cell pellets (3 L) were lysed for purification to yield 15-24 mgs of purified NS5B. The lysis buffer consisted of 20 mM Tris-HCl, pH 7.4, 500 mM NaCl, 0.5% triton X-100, 1 mM DTT, 1 mM EDTA, 20% glycerol, 0.5 mg/mL lysozyme, 10 mM MgCl2, 15 ug/mL deoxyribonuclease I, and Complete TM protease inhibitor tablets (Roche). After addition of the lysis buffer, frozen cell pellets were resuspended using a tissue homogenizer. To reduce the viscosity of the sample, aliquots of the lysate were sonicated on ice using a microtip attached to a Branson sonicator. The sonicated lysate was centrifuged at 100,000×g for 30 minutes at 4° C. and filtered through a 0.2 μm filter unit (Corning).
The protein was purified using two sequential chromatography steps: Heparin sepharose CL-6B and polyU sepharose 4B. The chromatography buffers were identical to the lysis buffer but contained no lysozyme, deoxyribonuclease I, MgCl2 or protease inhibitor and the NaCl concentration of the buffer was adjusted according to the requirements for charging the protein onto the column. Each column was eluted with a NaCl gradient which varied in length from 5-50 column volumes depending on the column type. After the final chromatography step, the resulting purity of the enzyme is >90% based on SDS-PAGE analysis. The enzyme was aliquoted and stored at −80° C.
HCVNS5B RdRp Enzyme Assay.
An on-bead solid phase homogeneous assay was used in a 384-well format to assess NS5B inhibitors (WangY-K, Rigat K, Roberts S, and Gao M (2006) Anal Biochem, 359: 106-111). The biotinylated oligo dT12 primer was captured on streptavidin-coupled imaging beads (GE, RPNQ0261) by mixing primer and beads in 1× buffer and incubating at room temperature for three hours. Unbound primer was removed after centrifugation. The primer-bound beads were resuspended in 3× reaction mix (20 mM Hepes buffer, pH 7.5, dT primer coupled beads, poly A template, ^3H-UTP, and RNAse inhibitor (Promega N2515)). Compounds were serially diluted 1:3 in DMSO and aliquoted into assay plates. Equal volumes (10 μL) of water, 3× reaction mix, and enzyme in 3× assay buffer (60 mM Hepes buffer, pH 7.5, 7.5 mM MgCl2, 7.5 mM KCl, 3 mM DTT, 0.03 mg/mL BSA, 6% glycerol) were added to the diluted compound on the assay plate. Final concentration of components in 384-well assay: 0.36 nM template, 15 nM primer, 0.29 μM ^3H-UTP (0.3 μCi), 1.6 U/μL RNAse inhibitor, 7 nM NS5B enzyme, 0.01 mg/mL BSA, 1 mM DTT, and 0.33 μg/μL beads, 20 mM Hepes buffer, pH 7.5, 2.5 mM MgCl2, 2.5 mM KCl, and 0.1% DMSO.
Reactions were allowed to proceed from 4 to 24 hours at 30° C. For 24 hour reactions, enzyme and inhibitors were pre-incubated for 24 hours before adding template and primer. Reactions were terminated by the addition of 50 mM EDTA (10 μL). After incubating for at least 15 minutes, plates were read on an Amersham LEADseeker multimodality imaging system.
IC50 values for compounds were determined using ten different [I]. IC50 values were calculated from the inhibition using the four-parameter logistic formula y=A+((B−A)/(1+((C/x)^D))), where A and B denote minimal and maximal % inhibition, respectively, C is the IC50, D is hill slope and x represents compound concentration.

Test [2] deals with genotype 1b (Con-1) HCV replicon in Huh-7 cells. Kind of test: HCV replicon luciferase assay. In kind it is cell-based. To be noted: 1b replicon, Huh-7, Renilla luciferase, 3 days incubation. In outline: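 Huh-7 cells carrying Con-1 genotype 1b replicon with Renilla luciferase reporter seeded onto titrated compound in DMEM, 4% FBS, 0.5% DMSO, 3 days at 37 °C. Luciferase read with EnduRen substrate (7.5 μM final) after ≥1 h; EC50 by four-parameter logistic fit.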
In general terms: A replicon is a self-replicating genome or part of one, used to study replication in cells.

Broadly, the IC50 is the concentration that gives 50% inhibition. Higher therefore signals weaker potency in that assay. Usually EC50 stands for the concentration needed to bring the measured effect to its halfway point.

T1 sequence (Q9WMX2 2420-2992): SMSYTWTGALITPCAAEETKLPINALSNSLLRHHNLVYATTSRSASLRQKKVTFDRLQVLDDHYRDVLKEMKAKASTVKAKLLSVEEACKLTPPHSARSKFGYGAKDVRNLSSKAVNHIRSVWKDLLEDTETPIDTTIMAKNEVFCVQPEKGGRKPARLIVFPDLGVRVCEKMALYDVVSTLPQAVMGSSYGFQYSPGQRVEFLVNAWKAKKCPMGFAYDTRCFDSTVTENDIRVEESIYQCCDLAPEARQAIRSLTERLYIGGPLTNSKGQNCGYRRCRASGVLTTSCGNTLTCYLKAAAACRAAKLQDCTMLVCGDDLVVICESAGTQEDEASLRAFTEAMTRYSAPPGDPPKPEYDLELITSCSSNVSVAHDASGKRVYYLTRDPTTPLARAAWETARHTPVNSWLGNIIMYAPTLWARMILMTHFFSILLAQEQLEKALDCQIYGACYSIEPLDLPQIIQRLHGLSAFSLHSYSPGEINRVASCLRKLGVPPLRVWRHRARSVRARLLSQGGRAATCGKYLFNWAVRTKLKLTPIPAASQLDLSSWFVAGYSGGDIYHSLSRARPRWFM

In the case of `CNC(=O)c1c(-c2ccc(F)cc2)oc2cc(CCC(F)(F)F)c(-c3cccc(C(=O)NC4(c5ncccn5)CC(OC(F)(F)F)C4)c3)cc12` (single isomer, unassigned) [Example 45a, 2-(4-Fluorophenyl)-N-methyl-5-(3-((1-(pyrimidin-2-yl)-3-(trifluoromethoxy)cyclobutyl)carbamoyl)phenyl)-6-(3,3,3-trifluoropropyl)benzofuran-3-carboxamide], the IC50 in test [1] is 0.02 µM. In test [2], this compound returned a half-maximal effective concentration (EC50) of 0.02 µM.
`CNC(=O)c1c(-c2ccc(F)cc2)oc2cc(CCC(F)(F)F)c(-c3cccc(C(=O)NC4(c5ncccn5)CC(OC(F)(F)F)C4)c3)cc12` (single isomer, unassigned) [Example 45b, 2-(4-Fluorophenyl)-N-methyl-5-(3-((1-(pyrimidin-2-yl)-3-(trifluoromethoxy)cyclobutyl)carbamoyl)phenyl)-6-(3,3,3-trifluoropropyl)benzofuran-3-carboxamide] came in with an IC50 in test [1] of 0.01 µM. The compound further showed a half-maximal effective concentration (EC50) in test [2] of 0.00946 µM.
The compound `CNC(=O)c1c(-c2ccc(F)cc2)oc2cc(CCC(F)(F)F)c(-c3ccc(OC)c(C(=O)NC4(c5ncccn5)CC(OC(F)(F)F)C4)c3)cc12` (single isomer, unassigned) [Example 47a, 2-(4-Fluorophenyl)-5-(4-methoxy-3-((1-(pyrimidin-2-yl)-3-(trifluoromethoxy)cyclobutyl)carbamoyl)phenyl)-N-methyl-6-(3,3,3-trifluoropropyl)benzofuran-3-carboxamide] came in with a 50% inhibitory concentration (IC50) in test [1] of 0.02 µM. For the same compound, the EC50 in test [2] (Hepatitis C virus, Huh-7, 72 h) was 0.01 µM.
In test [1], `CNC(=O)c1c(-c2ccc(F)cc2)oc2cc(CCC(F)(F)F)c(-c3ccc(OC)c(C(=O)NC4(c5ncccn5)CC(OC(F)(F)F)C4)c3)cc12` (single isomer, unassigned) [Example 47b, 2-(4-Fluorophenyl)-5-(4-methoxy-3-((1-(pyrimidin-2-yl)-3-(trifluoromethoxy)cyclobutyl)carbamoyl)phenyl)-N-methyl-6-(3,3,3-trifluoropropyl)benzofuran-3-carboxamide] registered an IC50 of 0.01 µM. The compound further returned an EC50 in test [2] of 0.01 µM.
Take `CCCc1cc2oc(-c3ccc(F)cc3)c(C(=O)NC)c2cc1-c1ccc(F)c(C(=O)NC2(c3ncccn3)CC(OC(F)(F)F)C2)c1` (single isomer, unassigned) [Example 48b, 5-(4-Fluoro-3-((1-(pyrimidin-2-yl)-3-(trifluoromethoxy)cyclobutyl)carbamoyl)phenyl)-2-(4-fluorophenyl)-N-methyl-6-propylbenzofuran-3-carboxamide]: the IC50 in test [1] stood at 0.00827 µM. The EC50 in test [2] came out at 0.01 µM.
In test [1], `CNC(=O)c1c(-c2ccc(F)cc2)oc2cc(CCC(F)(F)F)c(-c3ccc(F)c(C(=O)NC4(c5ncccn5)CC(OC(F)(F)F)C4)c3)cc12` (single isomer, unassigned) [Example 49b, 5-(4-Fluoro-3-((1-(pyrimidin-2-yl)-3-(trifluoromethoxy)cyclobutyl)carbamoyl)phenyl)-2-(4-fluorophenyl)-N-methyl-6-(3,3,3-trifluoropropyl)benzofuran-3-carboxamide] came in with an IC50 of 0.01 µM. Further, the EC50 in test [2] amounted to 0.02 µM.
As for `CCCc1cc2oc(-c3ccc(F)cc3)c(C(=O)NC)c2cc1-c1ccc(OC)c(C(=O)NC2(c3ncccn3)CC(OC(F)(F)F)C2)c1` (single isomer, unassigned) [Example 51a, 2-(4-Fluorophenyl)-5-(4-methoxy-3-((1-(pyrimidin-2-yl)-3-(trifluoromethoxy)cyclobutyl)carbamoyl)phenyl)-N-methyl-6-propylbenzofuran-3-carboxamide], half-maximal inhibition in test [1] (IC50) was put at 0.05 µM. In test [2] (Hepatitis C virus, Huh-7, 72 h), the EC50 was 0.02 µM.
`CCCc1cc2oc(-c3ccc(F)cc3)c(C(=O)NC)c2cc1-c1ccc(OC)c(C(=O)NC2(c3ncccn3)CC(OC(F)(F)F)C2)c1` (single isomer, unassigned) [Example 51b, 2-(4-Fluorophenyl)-5-(4-methoxy-3-((1-(pyrimidin-2-yl)-3-(trifluoromethoxy)cyclobutyl)carbamoyl)phenyl)-N-methyl-6-propylbenzofuran-3-carboxamide] registered an IC50 in test [1] of 0.02 µM. This compound also registered an EC50 in test [2] of 0.01 µM.
On to `CCCc1cc2oc(-c3ccc(F)cc3)c(C(=O)NC)c2cc1-c1cc(C(=O)NC2(C)CC(OC(F)F)C2)c(OC)cc1C` (single isomer, unassigned) [Example 57a, 5-(5-((3-(Difluoromethoxy)-1-methylcyclobutyl)carbamoyl)-4-methoxy-2-methylphenyl)-2-(4-fluorophenyl)-N-methyl-6-propylbenzofuran-3-carboxamide], for which the IC50 in test [1] turned out to be 0.01 µM. In test [2] (Hepatitis C virus, Huh-7, 72 h), this compound came in with a half-maximal effective concentration (EC50) of 0.05 µM.
`CNC(=O)c1c(-c2ccc(F)cc2)oc2cc(CCC(F)(F)F)c(-c3cccc(C(=O)NC4(C)CC(OC(F)F)C4)c3)cc12` (single isomer, unassigned) [Example 59b, 5-(3-((3-(Difluoromethoxy)-1-methylcyclobutyl)carbamoyl)phenyl)-2-(4-fluorophenyl)-N-methyl-6-(3,3,3-trifluoropropyl)benzofuran-3-carboxamide] gave a half-inhibitory concentration (IC50) in test [1] of 0.01 µM. Further, in test [2], the half-maximal effective concentration (EC50) stood at 0.02 µM.
In test [1], `CNC(=O)c1c(-c2ccc(F)cc2)oc2cc(CCC(F)(F)F)c(-c3ccc(F)c(C(=O)NC4(C)CC(OC(F)F)C4)c3)cc12` (single isomer, unassigned) [Example 63b, 5-(3-((3-(Difluoromethoxy)-1-methylcyclobutyl)carbamoyl)-4-fluorophenyl)-2-(4-fluorophenyl)-N-methyl-6-(3,3,3-trifluoropropyl)benzofuran-3-carboxamide] gave a half-inhibitory concentration (IC50) of 0.00303 µM. The compound further came in with an EC50 in test [2] of 0.01 µM.
Regarding `CNC(=O)c1c(-c2ccc(F)cc2)oc2cc(NCC(F)(F)F)c(-c3ccc(OC)c(C(=O)NC4(c5ncccn5)CC(OC(F)F)C4)c3)cc12` (single isomer, unassigned) [Example 64a], inhibition in test [1] was half-maximal at 0.0033 µM (IC50). For the same compound, a half-maximal response in test [2] (Hepatitis C virus, Huh-7, 72 h) (EC50) required 0.00423 µM.
The compound `CNC(=O)c1c(-c2ccc(F)cc2)oc2cc(NCC(F)(F)F)c(-c3ccc(OC)c(C(=O)NC4(c5ncccn5)CC(OC(F)F)C4)c3)cc12` (single isomer, unassigned) [Example 64b] had a 50% inhibitory concentration (IC50) in test [1] of 0.00397 µM. In addition, a half-maximal effect in test [2] (EC50) was put at 0.00597 µM.
For `CNC(=O)c1c(-c2ccc(F)cc2)oc2cc(NCC(F)(F)F)c(-c3cccc(C(=O)NC4(c5ncccn5)CC(OC(F)F)C4)c3)cc12` (single isomer, unassigned) [Example 65a], in that order: 0.00455 µM and 0.00872 µM.
Regarding `CNC(=O)c1c(-c2ccc(F)cc2)oc2cc(NCC(F)(F)F)c(-c3cccc(C(=O)NC4(c5ncccn5)CC(OC(F)F)C4)c3)cc12` (single isomer, unassigned) [Example 65b], the concentration for half-maximal inhibition (IC50) in test [1] stood at 0.00473 µM. Also, the midpoint of the response in test [2], the EC50, lay at 0.00423 µM.
